Target: T1, human PAR4 (Homo sapiens, UniProt Q96RI0)
T1 construct: expressed in transfected cells; host or cells: HEK293 PAR4 Clone 1.2A (BMS Arctic ID 383940)
T1 sequence (Q96RI0 18-385): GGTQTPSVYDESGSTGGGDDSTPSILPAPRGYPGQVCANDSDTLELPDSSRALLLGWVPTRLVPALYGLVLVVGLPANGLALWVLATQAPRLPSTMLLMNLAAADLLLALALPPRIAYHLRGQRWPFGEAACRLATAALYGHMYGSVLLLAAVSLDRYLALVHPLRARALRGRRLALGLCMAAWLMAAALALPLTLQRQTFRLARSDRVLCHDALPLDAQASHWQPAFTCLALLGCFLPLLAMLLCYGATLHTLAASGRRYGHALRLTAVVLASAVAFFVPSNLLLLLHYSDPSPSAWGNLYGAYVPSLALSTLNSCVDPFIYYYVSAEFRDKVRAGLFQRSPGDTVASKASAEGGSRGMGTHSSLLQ
Experiment: PAR4 FLIPR assay: antagonism of agonist-peptide-induced calcium mobilization in PAR4-expressing HEK293 cells
Format: cell-based
Conditions: H-Ala-Phe(4-F)-[…]NH2-induced intracellular calcium mobilization, 11-point curves

IC50 [nM] | Structure (SMILES)
6.7 | COc1cnc2c(-c3nc4cc(F)c(OC[C@@H](C)OC(=O)Nc5cnc(C)nc5)cc4s3)cc(C)cc2n1 [Example 357, (R)-1-((5-fluoro-2-(2-methoxy-7-methylquinoxalin-5-yl)benzo[d]thiazol-6-yl)oxy)propan-2-yl (2-methylpyrimidin-5-yl)carbamate]
3.1 | COc1cnc2c(-c3nc4cc(F)c(O[C@@H](C)[C@@H](C)OC(=O)Nc5ccc(C(=O)NCCO)nc5)cc4s3)cc(C)cc2n1 (stereo in doubt) [Example 392, (2R,3S)-3-((5-fluoro-2-(2-methoxy-7-methylquinoxalin-5-yl)benzo[d]thiazol-6-yl)oxy)butan-2-yl (6-((2-hydroxyethyl)carbamoyl)pyridin-3-yl)carbamate]
16 | COc1cnc2c(-c3nc4c(C)cc(OCCOC(=O)Nc5cnc(Cl)nc5)cc4s3)cc(C)cc2n1 [Example 119, 2-((2-(2-methoxy-7-methylquinoxalin-5-yl)-4-methylbenzo[d]thiazol-6-yl)oxy)ethyl (2-chloropyrimidin-5-yl)carbamate]
1.4 | CCOc1cnc2c(-c3nc4cc(F)c(O[C@@H](C)[C@@H](C)OC(=O)Nc5ccc(C(=O)NCC(C)(C)O)nc5)cc4s3)cc(C)cc2n1 [Example 527, (2R,3S)-3-((2-(2-ethoxy-7-methylquinoxalin-5-yl)-5-fluorobenzo[d]thiazol-6-yl)oxy)butan-2-yl (6-((2-hydroxy-2-methylpropyl)carbamoyl)pyridin-3-yl)carbamate]
0.7 | COCc1cnc2c(-c3cc4cc(OC)c(F)c(Cl)c4o3)cc(C)cc2n1 [Example 121, 5-(7-chloro-6-fluoro-5-methoxybenzofuran-2-yl)-2-(methoxymethyl)-7-methylquinoxaline]
4.3 | COc1cnc2c(-c3nc4c(F)c(F)c(OC)cc4s3)cc(Cl)cc2n1 [Example 214, 2-(7-chloro-2-methoxyquinoxalin-5-yl)-4,5-difluoro-6-methoxybenzo[d]thiazole]
36 | COCc1cnc2c(-c3nc4c(s3)C(O)CCC4)cc(C)cc2n1 (centres unmarked) [Example 143, 2-(2-(methoxymethyl)-7-methylquinoxalin-5-yl)-4,5,6,7-tetrahydrobenzo[d]thiazol-7-ol]
1.2 | COc1cnc2c(-c3cc4cc(OCCOC(=O)Nc5ccnc(C)c5)c(F)cc4o3)cc(CO)cc2n1 [Example 126, 2-((6-fluoro-2-(7-(hydroxymethyl)-2-methoxyquinoxalin-5-yl)benzofuran-5-yl)oxy)ethyl (2-methylpyridin-4-yl)carbamate]
0.6 | CNC(=O)c1cc(NC(=O)O[C@H](C)COc2cc3sc(-c4cc(C)cc5nc(OC)cnc45)nc3cc2F)ccn1 [Example 443, (R)-1-((5-fluoro-2-(2-methoxy-7-methylquinoxalin-5-yl)benzo[d]thiazol-6-yl)oxy)propan-2-yl (2-(methylcarbamoyl)pyridin-4-yl)carbamate]
3.2 | COc1cnc2c(-c3nc4c(C)c(F)c(OCCOC(=O)Nc5ccc(F)nc5)cc4s3)cc(C)cc2n1 [Example 302, 2-((5-fluoro-2-(2-methoxy-7-methylquinoxalin-5-yl)-4-methylbenzo[d]thiazol-6-yl)oxy)ethyl (6-fluoropyridin-3-yl)carbamate]
5.9 | CNC(=O)c1cc(NC(=O)O[C@H](C)COc2cc3sc(-c4cc(C)cc5nc(OC)cnc45)nc3c(Cl)c2F)ccn1 [Example 428, (R)-1-((4-chloro-5-fluoro-2-(2-methoxy-7-methylquinoxalin-5-yl)benzo[d]thiazol-6-yl)oxy)propan-2-yl (2-(methyl carbamoyl)pyridin-4-yl)carbamate]
0.7 | COc1cnc2c(-c3nc4cc(F)c(O[C@@H](C)[C@@H](C)OC(=O)Nc5cnc(OCCO)nc5)cc4s3)cc(C)cc2n1 [Example 556, (2R,3S)-3-((5-fluoro-2-(2-methoxy-7-methylquinoxalin-5-yl)benzo[d]thiazol-6-yl)oxy)butan-2-yl (2-(2-hydroxyethoxy)pyrimidin-5-yl)carbamate]
5.8 | COc1cnc2c(-c3nc4c(Cl)c(F)c(OCCOC(=O)Nc5ccc(C#N)nc5)cc4s3)cc(C)cc2n1 [Example 395, 2-((4-chloro-5-fluoro-2-(2-methoxy-7-methylquinoxalin-5-yl)benzo[d]thiazol-6-yl)oxy)ethyl (6-cyanopyridin-3-yl)carbamate]
0.5 | COCc1cnc2c(-c3nc4c(C)c(F)c(OCC(=O)OC)cc4s3)cc(C)cc2n1 [Example 286, methyl 2-((5-fluoro-2-(2-(methoxymethyl)-7-methylquinoxalin-5-yl)-4-methylbenzo[d]thiazol-6-yl)oxy)acetate]
6.2 | Cc1cc(-c2nc3cc(F)c(O[C@@H](C)[C@@H](C)OC(=O)Nc4cnc(C)nc4)cc3s2)c2ncc(OCC(F)F)nc2c1 [Example 827, (2R,3S)-3-((2-(2-(2,2-difluoroethoxy)-7-methylquinoxalin-5-yl)-5-fluorobenzo[d]thiazol-6-yl)oxy)butan-2-yl (2-methylpyrimidin-5-yl)carbamate]
2.5 | COc1cnc2c(-c3nc4c(C)cc(OCCNS(=O)(=O)c5ccc(F)cc5)nc4s3)cc(C)cc2n1 [Example 194, 4-fluoro-N-(2-((2-(2-methoxy-7-methylquinoxalin-5-yl)-7-methylthiazolo[5,4-b]pyridin-5-yl)oxy)ethyl)benzenesulfonamide]
1.2 | COCc1cnc2c(-c3nc4c(C(O)C5CCCCC5)cc(OC)cc4s3)cc(C)cc2n1 (centres unmarked) [Example 165, Cyclohexyl(6-methoxy-2-(2-(methoxymethyl)-7-methylquinoxalin-5-yl)benzo[d]thiazol-4-yl)methanol]
2.9 | Cc1cc(-c2nc3c(F)cc(OCCNS(=O)(=O)c4ccccc4)cc3s2)c2ncc(OC(F)F)nc2c1 [Example 67, N-(2-(2-(2-(difluoromethoxy)-7-methylquinoxalin-5-yl)-4-fluorobenzo[d]thiazol-6-yloxy)ethyl)benzenesulfonamide]
4.7 | Cc1cc(-c2nc3c(C)cccc3s2)c2ncc(OC(F)F)nc2c1 [Example 52, 2-(2-(difluoromethoxy)-7-methylquinoxalin-5-yl)-4-methylbenzo[d]thiazole]
8 | COc1cnc2c(-c3nc4cc(F)c(O[C@@H](C)[C@@H](C)OC(=O)Nc5cnc(C)nc5)cc4s3)cc(C#N)cc2n1 [Example 825, (2R,3S)-3-((2-(7-cyano-2-methoxyquinoxalin-5-yl)-5-fluorobenzo[d]thiazol-6-yl)oxy)butan-2-yl (2-methylpyrimidin-5-yl)carbamate]
5.5 | COc1cnc2c(-c3nc4c(C)c(C)c(OC)cc4s3)cc(CO)cc2n1 [Example 219, (3-methoxy-8-(6-methoxy-4,5-dimethylbenzo [d]thiazol-2-yl)quinoxalin-6-yl)methanol]
4.6 | COc1cnc2c(-c3nc4c(Cl)c(F)c(OCCOC(=O)NCc5ccccn5)cc4s3)cc(C)cc2n1 [Example 396, 2-((4-chloro-5-fluoro-2-(2-methoxy-7-methylquinoxalin-5-yl)benzo[d]thiazol-6-yl)oxy)ethyl (pyridin-2-ylmethyl)carbamate]
2.4 | COc1cnc2c(-c3nc4cc(F)c(O[C@@H](C)[C@@H](C)OC(=O)Nc5cnc(OC)nc5)nc4s3)cc(C)cc2n1 [Example 711, (2R,3S)-3-((6-fluoro-2-(2-methoxy-7-methylquinoxalin-5-yl)thiazolo[5,4-b]pyridin-5-yl)oxy)butan-2-yl (2-methoxypyrimidin-5-yl)carbamate]
2 | COc1cnc2c(-c3nc4c(Cl)c(F)c(O[C@@H](C)[C@@H](C)OC(=O)Nc5cncc(C#N)c5)cc4s3)cc(Cl)cc2c1 [Example 802, (2R,3S)-3-((4-chloro-2-(6-chloro-3-methoxyquinolin-8-yl)-5-fluorobenzo[d]thiazol-6-yl)oxy)butan-2-yl (5-cyanopyridin-3-yl)carbamate]
11 | CNc1cnc2c(-c3nc4cc(F)c(O[C@@H](C)[C@@H](C)OC(=O)Nc5cnc(C)nc5)cc4s3)cc(Cl)cc2c1 [Example 652, (2R,3S)-3-((2-(6-chloro-3-(methylamino)quinolin-8-yl)-5-fluorobenzo[d]thiazol-6-yl)oxy)butan-2-yl (2-methylpyrimidin-5-yl)carbamate]
32 | COCc1cnc2c(-c3cc4ccccc4o3)cc(C)cc2n1 [Example 195, 5-(benzofuran-2-yl)-2-(methoxymethyl)-7-methylquinoxaline]
1.7 | COc1cnc2c(-c3nc4c(Cl)c(F)c(OC[C@@H](C)OC(=O)Nc5ccc(Br)nc5)cc4s3)cc(C)cc2n1 [Example 403, (R)-1-((4-chloro-5-fluoro-2-(2-methoxy-7-methylquinoxalin-5-yl)benzo[d]thiazol-6-yl)oxy)propan-2-yl (6-bromopyridin-3-yl)carbamate]
0.9 | COc1cnc2c(-c3nc4cc(F)c(O[C@@H](C)[C@@H](C)OC(=O)Nc5ccc(C(=O)NC[C@H](C)O)nc5)cc4s3)cc(C)cc2n1 [Example 441, (2R,3S)-3-((5-fluoro-2-(2-methoxy-7-methylquinoxalin-5-yl)benzo[d]thiazol-6-yl)oxy)butan-2-yl (6-(((S)-2-hydroxypropyl)carbamoyl)pyridin-3-yl)carbamate]

Structure (SMILES) | IC50 [nM]
COc1cnc2c(-c3nc4cc(F)c(O[C@@H](C)[C@@H](C)OC(=O)Nc5ccnc(OCCC(C)(C)O)c5)cc4s3)cc(C)cc2n1 [Example 563, (2R,3S)-3-((5-fluoro-2-(2-methoxy-7-methylquinoxalin-5-yl)benzo[d]thiazol-6-yl)oxy)butan-2-yl (2-(3-hydroxy-3-methylbutoxy)pyridin-4-yl)carbamate] | 2.8
